Assay [1] relates to 5TGM1 murine model of MM. The experiment in a line: 5TGM1 murine model of MM, bone marrow infiltration. It counts as in vivo. The note with it: 5TGM1 model. The method, then: (§1) The effect of Compound 1 was tested in human MM cell lines (HMCLs) using cytotoxicity, colony formation, co-culture, qPCR, Western Blot, flow cytometry, ELISA, and lentiviral transduction experiments. The effect of Compound 1 was assessed in vivo in the 5TGM1 murine model of MM.

Assay [2] concerns MYC, AKT, ERK, GSK3b, FOXM1. Description: Central MM signalling cascades and key MM gene protein expression. It counts as cell-based, human. The method, then: as §1
In assay [3] the test system is MM cells. Description: Drug combination studies in MM cell lines. The assay is classed as cell-based, human. The method, then: as §1
In assay [4] the test system is microtubule polymerization. Description: Mechanistic studies of microtubule polymerization.
Assay [5] concerns parental and PI-resistant HMCLs. The experiment in a line: Cytotoxicity in human MM cell lines (HMCLs). The note with it: parental and PI-resistant HMCLs (n=16), read-out: median IC50. It counts as cell-based. The method, then:
as §1

Assay [6] concerns MM cells. Description: Time course experiments: mitotic arrest and apoptosis in MM cells. The assay is classed as cell-based, human. The method, then:
as §1

The test system of assay [7] is BMI-1. Description: BMI-1 protein expression in HMCLs. The assay is classed as cell-based, human. The note with it: within 24 hrs of treatment. The method, then: as §1

Entries after “also recorded” stand apart in the source; their conditions may differ.

Usually IC50 stands for the concentration that gives 50% inhibition. In the case of `Cc1nc2ccc(F)cc2n1-c1nc(N)c(F)c(Nc2ccc(C(F)(F)F)cc2)n1` [Compound 1, 5-fluoro-2-(6-fluoro-2-methyl-1H-benzo[d]imidazol-1-yl)-N^4-[4-(trifluoromethyl)phenyl]pyrimidine-4,6-diamine], the “MM cells after treatment” value in assay [1] (30 mg/kg/biweekly) is listed as “complete eradication of MM cells”. Further, the BM infiltration entry in assay [1] (various doses versus vehicle (FIG. 1, *P<0.0001)) was “dose response reduction; also recorded: reproducible dose dependent reduction”. Besides, in assay [2], the “ERK and GSK3b activity” value is “unaffected”; the “MYC and AKT activity” value is given as “significant reduction”; the “MYC and FOXM1 protein expression” value was “Downregulation”. In addition, the “combination effect with established drugs and BH3 mimetics” value in assay [3] (IMiDs, Dex, PIs, MEL, BH3 mimetics targeting BCL2, BCLxL, MCL1, in individual cell lines) is “synergism”. For the same compound, the “combination effect with epigenetic modulators” value in assay [3] (targeting EZH2, CBP/EP300, BRD4, HDACs) was “Consistent synergism”. Further, the microtubule polymerization entry in assay [4] is “inhibits microtubule polymerization”. Besides, in assay [5], the IC50 worked out at 57.2 nM. The mitotic arrest entry in assay [6] (6-24 h post treatment, elevated Cyclin B1, AURKA and BIRC5, downregulation of MCL1) was “potent mitotic arrest”. Also, the “rescue of MM cells with BMI-1 overexpression” value in assay [6] (BMI-1 overexpression) is given as “did not rescue”. Further, in assay [6] (after prolonged mitosis, Annexin V positive cells, cleaved caspases 8 and 9, cleaved PARP, loss of MCL1, mitochondrial membrane depolarization), the apoptosis result was “induction of apoptosis”. In addition, in assay [7], the BMI-1 protein expression result was “downregulated BMI-1 protein expression”.
